According to ChEMBL document CHEMBL1938252, “Structure-based optimization of morpholino-triazines as PI3K and mTOR inhibitors” (Bioorg Med Chem Lett, 2012):

Columns and labels:
[1] = molecular target: T1, Serine/threonine-protein kinase mTOR (Homo sapiens, UniProt P42345); experiment: Inhibition of mTOR
[2] = molecular target: Phosphatidylinositol 4,5-bisphosphate 3-kinase catalytic subunit alpha isoform (Homo sapiens, UniProt P42336); experiment: Inhibition of PI3Kalpha
[3] = Selectivity ratio of IC50 for PI3Kaplha to IC50 for mTOR
[4] = molecular target: T1, Serine/threonine-protein kinase mTOR; experiment: Inhibition of mTOR-mediated p70S6K phosphorylation at Thr389 in human PC3 cells; assay type: cell-based, PC-3

Phosphatidylinositol 4,5-bisphosphate 3-kinase catalytic subunit alpha isoform, sequence (P42336 whole entry, canonical isoform): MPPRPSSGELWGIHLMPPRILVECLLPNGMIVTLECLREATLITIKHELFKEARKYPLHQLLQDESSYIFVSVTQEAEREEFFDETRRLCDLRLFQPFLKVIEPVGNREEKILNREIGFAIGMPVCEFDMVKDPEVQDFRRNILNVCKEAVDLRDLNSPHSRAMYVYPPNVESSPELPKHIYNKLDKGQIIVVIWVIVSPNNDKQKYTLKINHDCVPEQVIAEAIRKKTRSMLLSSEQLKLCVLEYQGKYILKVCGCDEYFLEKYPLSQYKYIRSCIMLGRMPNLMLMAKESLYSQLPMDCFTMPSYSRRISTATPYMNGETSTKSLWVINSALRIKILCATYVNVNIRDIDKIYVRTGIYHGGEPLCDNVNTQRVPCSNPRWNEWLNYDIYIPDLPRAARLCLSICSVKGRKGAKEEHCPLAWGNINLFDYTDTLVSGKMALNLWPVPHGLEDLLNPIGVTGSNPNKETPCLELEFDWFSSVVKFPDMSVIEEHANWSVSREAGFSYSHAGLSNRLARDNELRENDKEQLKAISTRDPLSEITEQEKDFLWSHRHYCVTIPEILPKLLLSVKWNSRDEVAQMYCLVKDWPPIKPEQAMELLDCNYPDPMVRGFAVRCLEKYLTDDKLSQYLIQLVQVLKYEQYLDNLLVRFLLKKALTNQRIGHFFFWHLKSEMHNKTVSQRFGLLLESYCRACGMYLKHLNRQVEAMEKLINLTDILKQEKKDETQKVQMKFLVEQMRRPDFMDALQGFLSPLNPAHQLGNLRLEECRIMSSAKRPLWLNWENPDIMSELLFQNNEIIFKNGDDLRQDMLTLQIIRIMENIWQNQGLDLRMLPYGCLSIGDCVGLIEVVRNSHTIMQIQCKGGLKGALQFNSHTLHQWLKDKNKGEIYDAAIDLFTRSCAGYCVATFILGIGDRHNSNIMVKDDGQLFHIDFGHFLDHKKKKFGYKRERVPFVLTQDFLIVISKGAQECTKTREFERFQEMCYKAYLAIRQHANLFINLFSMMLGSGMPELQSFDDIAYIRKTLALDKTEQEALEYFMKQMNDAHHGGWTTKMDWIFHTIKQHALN

SMILES	IC50 [1]	IC50 [2]	Ratio IC50 [3]	IC50 [4]
Cc1ccc(-c2nc(N3CCOCC3)nc(-n3ccnc3C)n2)c2cc[nH]c12	18 nM	1100 nM	60	84 nM
Cc1nccn1-c1nc(-c2cnc(N)nc2)nc(N2CCOCC2)n1	420 nM	25 nM	0.06	
CCc1nccn1-c1nc(-c2cccc3[nH]ccc23)nc(N2CCOCC2)n1	26 nM	89 nM	3.4	96 nM
Clc1cccc(Nc2nc(N3CCOCC3)nc(-n3cccn3)n2)c1	570 nM	2800 nM	4.9	
Cc1nccn1-c1nc(-c2cccc(O)c2)nc(N2CCOCC2)n1	95 nM	53 nM	0.6	
CCc1cc(C(F)(F)F)nn1-c1nc(-c2cccc3[nH]ccc23)nc(N2CCOCC2)n1	71 nM	4050 nM	57	490 nM
FC(F)c1nc2ccccc2n1-c1nc(N2CCOCC2)nc(N2CCOCC2)n1 [ZSTK-474]	350 nM			
